# Measurements from patent US6518291B1, “Inhibitors of IMPDH enzyme” (Vertex Pharmaceuticals, Incorporated, priority 1997, dated 2003).
# Biological target: IMPDH human type II (Homo sapiens, UniProt P12268)
# Assay: IMPDH Activity Inhibition Assay (spectrophotometric, NADH formation at 340 nm)
# Assay type: biochemical
# Conditions: 37° C., tight-binding equations of Henderson
# Experimental: We measured the inhibition constants of the compounds listed in Table II utilizing the following protocol:
# IMP dehydrogenase activity was assayed following an adaptation of the method first reported by Magasanik. [Magasanik, B. Moyed, H. S. and Gehring L. B. (1957) J. Biol. Chem. 226, 339]. Enzyme activity was measured spectrophotometrically, by monitoring the increase in absorbance at 340 nm due to the formation of NADH (ε340 is 6220 M^−1 cm^−1). The reaction mixture contained 0.1 M Tris pH 8.0, 0.1 M KCl, 3 mM EDTA, 2 mM DTT, […] and enzyme (IMPDH human type II) at a concentration of 15 to 50 nM. This solution is incubated at 37° C. for 10 minutes. The reaction is started by adding NAD to a final concentration of […] and the initial rate is measured by following the linear increase in absorbance at 340 nm for 10 minutes. For reading in a standard spectrophotometer (path length 1 cm) the final volume in the cuvette is 1.0 ml. The assay has also been adapted to a 96 well microtiter plate format; in this case the concentrations of all the reagents remain the same and the final volume is decreased to 200 μl.
# For the analysis of inhibitors, the compound in question is dissolved in DMSO to a final concentration of 20 mM and added to the initial assay mixture for preincubation with the enzyme at a final volume of 2-5% (v/v). The reaction is started by the addition of NAD, and the initial rates measured as above. Ki determinations are made by measuring the initial velocities in the presence of varying amounts of inhibitor and fitting the data using the tight-binding equations of Henderson (Henderson, P. J. F. (1972) Biochem. J. 127, 321].
# Ki values are expressed in nM. Category “A” indicates 0.01 to 500 nm activity, category “B” indicates 501-5,000 nm activity, category “C” indicates 5,001 to 15,000 nm activity, category “D” indicates greater than 15,000 nm activity. The designation “ND” is used where a given compound was not tested.
row,SMILES,Ki [nM]
1,COc1ccc(Nc2nc3ccccc3o2)cc1OC [Compound 19],> 15000
2,Cc1ccc(Nc2nc3ccccc3[nH]2)cc1 [Compound 4],> 15000
3,COc1cc(Nc2nc3ccccc3o2)ccc1C#N [Compound 21],> 15000
4,COc1ccccc1Nc1nc2ccccc2o1 [Compound 6],> 15000
5,COc1cc(Nc2nc3ccccc3[nH]2)ccc1-c1cnco1 [Compound 5],501 to 5000
6,COc1cc(Nc2nc3ccccc3s2)ccc1C#N [Compound 13],5000 to 15000
7,COc1ccc(Nc2nc3ccccc3[nH]2)cc1 [Compound 3],> 15000
8,COc1cc(Nc2nc3ccccc3s2)ccc1-c1cnco1 [Compound 9],0.01 to 500
9,c1ccc2oc(Nc3ccc(-c4cnco4)cc3)nc2c1 [Compound 18],> 15000
10,COc1cc(Nc2nc3ccc(C)cc3o2)ccc1-c1cnco1 [Compound 14],0.01 to 500
11,COC(=O)c1ccc2nc(Nc3ccc(-c4cnco4)c(OC)c3)[nH]c2c1 [Compound 10],0.01 to 500
12,COc1cc(Nc2nc3cc(C)ccc3o2)ccc1-c1cnco1 [Compound 12],0.01 to 500
13,Clc1cc(Nc2nc3ccccc3o2)ccc1-c1cnco1 [Compound 23],501 to 5000
14,N#Cc1ccc(Nc2nc3ccccc3o2)cc1Cl [Compound 20],> 15000
15,COc1cc(Nc2nc3cc(C)c(C)cc3o2)ccc1-c1cnco1 [Compound 17],0.01 to 500
16,COc1cc(Nc2nc3cc(C)ccc3o2)ccc1-c1cnco1 [Compound 22],501 to 5000
17,c1ccc(Nc2nc3ccccc3[nH]2)cc1 [Compound 2],> 15000
18,COc1cccc(Nc2nc3ccccc3o2)c1 [Compound 24],> 15000
19,COc1cc(Nc2nc3ccccc3o2)ccc1-c1cnco1 [Compound 8],0.01 to 500
20,COc1cc(Nc2nc3c(C)cccc3[nH]2)ccc1-c1cnco1 [Compound 16],0.01 to 500
21,C=CCc1cccc2nc(Nc3ccc(-c4cnco4)c(OC)c3)oc12 [Compound 25],0.01 to 500
22,COc1cc(Nc2nc3ccccc3[nH]2)ccc1C#N [Compound 15],5000 to 15000
23,COc1cc(Nc2nc3ccc(CO)cc3[nH]2)ccc1-c1cnco1 [Compound 11],501 to 5000
24,COc1ccccc1Nc1nc2ccccc2s1 [Compound 7],> 15000
